Measured values taken from PubChem BioAssay AID1159565 (GlaxoSmithKline (GSK), 2015).
pIC50: −log10 of the molar value. Activity calls are given as the source filed them. How the calls were made is not given here.

System: T. cruzi-infected H9C2 cardiomyocytes, high-content imaging
Experiment: intracellular T. cruzi amastigote inhibition, imaging, H9C2 host cardiomyocytes, host toxicity (AID 1159565);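 further: infected cells incubated 72 h after plating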
[1] = measured here: H9C2 host cell toxicity
[2] = measured here: amastigotes per cell

Structure (SMILES) | pIC50 | pIC50 [1] | pIC50 [2] | IC50
CNc1cncc(C2CCCN2C(=O)Cc2ccc3ccccc3c2)n1 (stereo not given) | 6.80 | < 4.30 | 6.80 | 
COc1cnc2ccc(=O)n(CCN3CCC(NC/C=C/c4cc(F)ccc4F)CC3)c2c1 | 7.70 | 4.80 | 8.00 | 
CCCCNc1nccc(-c2c(-c3ccc(F)cc3)nn3c(N4CCOCC4)cccc23)n1 | 5.49 | < 4.30 | 6.00 | 
O=C(NCC(c1cccnc1)N1CCc2ccccc2C1)C(=O)Nc1cccc(Cl)c1 (stereo not given) | 7.10 | 4.60 | 7.20 | 
Cc1[nH]nc2c1C(c1ccc(OCc3ccccc3F)cc1)SCC(=O)N2 (stereo not given) | 5.49 | < 4.30 | 6.10 | 
CN(Cc1ccc(F)cc1)c1ccc(OCC(=O)N2CCCCC2c2cccnc2)nn1 (stereo not given) | 6.40 | < 4.30 | 6.40 | 
CC(=O)Nc1ccc(-c2cnc(N)c(-c3nc4ccc(F)cc4[nH]3)c2)cc1 |  | 6.10 | < 4.30 | > 50 µM (inactive)
Cc1cc(Nc2cc(C3CC3)[nH]n2)nc(N2CCC[C@H]2C(N)=O)n1 | 7.20 | 6.89 | 7.70 | 
O=C(Nc1nc(-c2ccccn2)cs1)c1ccccc1-n1cnnn1 | 5.49 | 5.30 | 5.70 | 
CC(C)c1sc(Cl)nc1C(=O)NCCc1nc(C(=O)Nc2ccc3c(c2)OCO3)cs1 | 6.00 | < 4.30 | 6.20 | 
Cc1nc(N2CC(C)OC(C)C2)sc1C(=O)Nc1ccc2c(c1)OCO2 (stereo not given) | 5.40 | < 4.30 | 5.60 | 
Oc1cccnc1-c1n[nH]c(Cc2ccccc2)n1 | 5.10 | 4.80 | 5.20 | 
Cc1cn[nH]c1C1CCCN(Cc2nc3ccccc3n2C)C1 (stereo not given) | 4.70 | < 4.30 | 5.00 | 
CCOc1ccc(N(C)S(=O)(=O)c2ccc3[nH]cc(C(=O)NC4CCCC4)c(=O)c3c2)cc1 |  | < 4.30 | 5.20 | > 50 µM (inactive)
CN(C)c1ccc(-c2cc3nccnc3c(OC[C@H]3CCCNC3)n2)cn1 |  | 4.70 | 5.80 | > 50 µM (inactive)
CN(Cc1nc2ccc(C(=O)NCC3CCCCC3)cc2[nH]1)C1CCCc2cccnc21 (stereo not given) | 6.20 | 5.30 | 6.49 | 
COc1cccc(-c2c(C)nn(-c3nc(N)nc(-c4ccccn4)n3)c2N)c1 | 5.70 | < 4.30 | 6.30 | 
Cc1ccc(C)c(CN2C(=O)NC3(CCc4ccccc43)C2=O)c1 (stereo not given) | 4.70 | < 4.30 | 5.10 | 

Structure (SMILES) | pIC50 | pIC50 [1] | pIC50 [2] | IC50
COc1ccc(C2C3CCCCC3(O)CCN2CC(=O)Nc2ccc(Cl)cc2Cl)cc1 (stereo not given) | 5.89 | 4.70 | 6.10 | 
CCc1cc(C(=O)Nc2nccn2-c2ccccc2)cs1 | 5.30 | 4.70 | 5.49 | 
Cc1ccc(NC(=O)c2ccnc(N3CCCC3)c2)cc1-c1ccsc1C(N)=O | 4.89 | < 4.30 | 5.10 | 
Cc1ccccc1CNC(=O)CN(Cc1ccccn1)Cc1ccccn1 | 4.80 | < 4.10 | 5.20 | 
CC(C)(C)CC(=O)NCc1noc(COc2ccccc2)n1 | 5.60 | < 4.30 | 5.60 | 
Cc1cccnc1CN1CCN(CCCOc2ccc(-c3ccc(C(N)=O)cc3)cc2)CC1 | 4.70 | < 4.30 | 6.40 | 
CCOc1cnn(C)c(=O)c1Nc1ccc(C(=O)NCc2ccc(F)cc2)cc1 | 7.00 | < 4.30 | 6.89 | 
Cn1c(CC(=O)NNC(=O)c2ccc3ccccc3n2)nc2ccccc21 | 5.30 | < 4.30 | 5.20 | 
CS(=O)(=O)NC1CCC(Nc2ncc(Br)c(Nc3ccccc3C(N)=O)n2)CC1 (stereo not given) | 5.30 | 6.30 | 5.70 | 
COc1ccc([N+](=O)[O-])cc1NC(=O)c1cc(Cl)ccc1O | 4.80 | < 4.30 | 5.10 | 
CCS(=O)(=O)Nc1ccc(C2=NN(C(=O)c3cccs3)C(c3ccccc3OC)C2)cc1 (stereo not given) |  | < 4.30 | < 4.30 | > 50 µM (inactive)
CS(=O)(=O)c1ccc(Nc2nccc(Nc3n[nH]c4ccc(F)cc34)n2)c(F)c1 | 4.49 | 4.80 | 5.40 | 
CN(C)Cc1ccc(-c2ccc(S(=O)(=O)NCC3CCCO3)c(F)c2)cc1 (stereo not given) | 5.30 | 4.20 | 5.70 | 
COc1ccc(OC)c(NC(=O)c2ccc([N+](=O)[O-])o2)c1 | 4.89 | 5.40 | 5.10 | 
CCCCn1c(=O)c2c(N)onc2n(CCCC)c1=O | 4.49 | 4.60 | 4.60 | 
OCCCNc1nc(Nc2ccncc2)nc2ccccc12 | 5.89 | < 4.30 | 6.70 | 
CC(C)(C)C(Cn1ccnc1)NC(=O)c1ccc2nc(C3CC3)oc2c1 (stereo not given) | 7.00 | < 4.30 | 7.10 | 
